From patent US9078444B2, “Isothiazoline derivatives as insecticidal compounds” (Syngenta Participations AG, priority 2011, dated 2015) come the findings set out here.

Structures are written as SMILES. Like-named read-outs stand apart in the source and are kept apart here.

Common to all, as to format: in vivo
Test [1] deals with Spodoptera littoralis. Nature of the test: Spodoptera littoralis persistence test on sprayed cotton plants (increased safety profile / bio-degradability). Particulars: for Control after 10 days/%: leaves excised 10 days after treatment; for pest or weed control at 12.5 ppm: Spodoptera littoralis. Here is the method:
Biological Examples Showing Increased Safety Profile:
Spodoptera littoralis (Egyptian Cotton Leafworm)
Cotton plants in the 5th leaf stage (around 5 weeks old) are treated in an automated turn table spray chamber. Plants are stored in the greenhouse length during the whole test period.
2, 16 and optionally 10 days after treatment 4 leaves from each sample are excised, placed into 14 cm plastic petri dishes on wet filter paper. The infestation of 10 L3-Spodoptera littoralis is made immediately afterwards. After an incubation period of 6 days the samples are checked for mortality.
In the following series of experiments the compounds of the invention are compared with the corresponding isoxazoline analogues from the prior art on Spodoptera littoralis (Egyptian cotton leafworm) performed as described in the method above.

Test [2] concerns Spodoptera littoralis. Put plainly: Spodoptera littoralis (Egyptian cotton leafworm) cotton leaf disc test. Particulars: foliar, 72 h, 200 ppm sprayed on cotton leaf discs, mortality, feeding behavior, growth regulation 3 days after treatment. Here is the method: Spodoptera littoralis (Egyptian Cotton Leafworm): Cotton leaf discs were placed on agar in a 24-well microtiter plate and sprayed with test solutions at an application rate of 200 ppm. After drying, the leaf discs were infested with […]. The samples were checked for mortality, feeding behavior, and growth regulation 3 days after treatment (DAT).

A further test has as its system Heliothis virescens. Put plainly: Heliothis virescens (tobacco budworm) egg test on artificial diet. Particulars: 96 h, 200 ppm (concentration in well 18 ppm), eggs on artificial diet, egg mortality, larval mortality, growth regulation after 4 days. Here is the method:
Heliothis virescens (Tobacco Budworm): Eggs (0-24 h old) were placed in 24-well microtiter plate on artificial diet and treated with test solutions at an application rate of 200 ppm (concentration in well 18 ppm) by pipetting. After an incubation period of 4 days, samples were checked for egg mortality, larval mortality, and growth regulation.

The test system of another test is Plutella xylostella. Nature of the test: Plutella xylostella (diamond back moth) artificial diet test. The conditions noted are these: 144 h, 200 ppm (concentration in well 18 ppm), L2 larvae, larval mortality and growth regulation after 6 days. The method, then: Plutella xylostella (Diamond Back Moth): 24-well microtiter plate (MTP) with artificial diet was treated with test solutions at an application rate of 200 ppm (concentration in well 18 ppm) by pipetting. After drying, the MTPs were infested with L2 larvae (7-12 per well). After an incubation period of 6 days, samples were checked for larval mortality and growth regulation.

The next test has as its system Diabrotica balteata. Nature of the test: Diabrotica balteata (corn root worm) artificial diet test. Particulars: 120 h, 200 ppm (concentration in well 18 ppm), L2 larvae, larval mortality and growth regulation after 5 days. Here is the method:
Diabrotica balteata (Corn Root Worm): A 24-well microtiter plate (MTP) with artificial diet was treated with test solutions at an application rate of 200 ppm (concentration in well 18 ppm) by pipetting. After drying, the MTPs were infested with L2 larvae (6-10 per well). After an incubation period of 5 days, samples were checked for larval mortality and growth regulation.

In the next test the test system is Thrips tabaci. Nature of the test: Thrips tabaci (onion thrips) sunflower leaf disc test. Particulars: foliar, 168 h, 200 ppm sprayed on sunflower leaf discs, mixed ages, mortality after 7 days. The method, then:
Thrips tabaci (Onion Thrips): Sunflower leaf discs were placed on agar in a 24-well microtiter plate and sprayed with test solutions at an application rate of 200 ppm. After drying, the leaf discs were infested with a thrips population of mixed ages. After an incubation period of 7 days, samples were checked for mortality.

The test system of the next test is Tetranychus urticae. Put plainly: Tetranychus urticae (two-spotted spider mite) bean leaf disc test. Particulars: foliar, 192 h, 200 ppm sprayed on bean leaf discs, mixed ages, egg, larval and adult mortality 8 days later. The source says: Tetranychus urticae (Two-Spotted Spider Mite): Bean leaf discs on agar in 24-well microtiter plates were sprayed with test solutions at an application rate of 200 ppm. After drying, the leaf discs are infested with mite populations of mixed ages. 8 days later, discs are checked for egg mortality, larval mortality, and adult mortality.

Where [3] appears, read: 12.5 ppm on cotton plants, 10 L3 larvae, mortality after 6 days incubation.
The mark [4] stands for this setting: 48 h, 12.5 ppm on cotton plants, leaves excised 2 days after treatment, 10 L3 larvae, mortality after 6 days incubation, read-out: Control after 2 days/%.
[5] abbreviates: 384 h, 12.5 ppm on cotton plants, leaves excised 16 days after treatment, 10 L3 larvae, mortality after 6 days incubation, read-out: Control after 16 days/%.

As to `Cc1cc(C2=NOC(c3cc(Cl)cc(Cl)c3)(C(F)(F)F)C2)ccc1C(=O)NCc1ccccn1` (stereo not drawn) [Compound 1-061 from EP1731512, reference compound], in the test with Spodoptera littoralis [1] (setting [3]), the “Control after 10 days/%” value turned out to be 100%. The pest or weed control at 12.5 ppm in the test on Spodoptera littoralis [1] (setting [4]) and in the test with Spodoptera littoralis [1] (setting [5]) was 100% throughout.
Take `Cc1cc(C2=NOC(c3cc(Cl)cc(Cl)c3)(C(F)(F)F)C2)ccc1C(=O)NCC(=O)NCC(F)(F)F` (stereo not drawn) [Compound 3-086 from EP1731512, reference compound]: the “Control after 10 days/%” value in the test with Spodoptera littoralis [1] (setting [3]) is 100%. Moreover, the pest or weed control at 12.5 ppm in the test on Spodoptera littoralis [1] (setting [4]) and in the test on Spodoptera littoralis [1] (setting [5]) was 100% in each case.
Take `Cc1cc(C2=NSC(c3cc(Cl)cc(Cl)c3)(C(F)(F)F)C2)ccc1C(=O)NCC(=O)NCC(F)(F)F` (stereo not drawn) [Compound A01, 4-[5-(3,5-dichlorophenyl)-5-(trifluoromethyl)-4H-isothiazol-3-yl]-2-methyl-N-[2-oxo-2-(2,2,2-trifluoroethylamino)ethyl]benzamide]: the pest or weed control at 200 ppm in the test on Spodoptera littoralis [2], with Heliothis virescens, in the test on Plutella xylostella, with Diabrotica balteata, in the test on Thrips tabaci and with Tetranychus urticae was at least 80% in each case. The “Control after 10 days/%” value in the test with Spodoptera littoralis [1] (setting [3]) is 60%. In addition, the values for the pest or weed control at 12.5 ppm with Spodoptera littoralis [1] (setting [4]) and in the test with Spodoptera littoralis [1] (setting [5]) were 100% and 10%, respectively.
Consider `Cc1cc(C2=NSC(c3cc(Cl)cc(Cl)c3)(C(F)(F)F)C2)ccc1C(=O)NC1CS(=O)(=O)C1` (stereo not drawn) [Compound A02, 4-[5-(3,5-dichlorophenyl)-5-(trifluoromethyl)-4H-isothiazol-3-yl]-N-(1,1-dioxothietan-3-yl)-2-methyl-benzamide], for which the pest or weed control at 200 ppm in the test with Spodoptera littoralis [2], with Heliothis virescens, in the test on Plutella xylostella, in the test on Diabrotica balteata, with Thrips tabaci and with Tetranychus urticae was at least 80% in each case. In addition, the “Control after 10 days/%” value in the test on Spodoptera littoralis [1] (setting [3]) stood at 35%. In addition, the pest or weed control at 12.5 ppm in the test with Spodoptera littoralis [1] (48 h, read-out: Control after 2 days/%) came out at 100%; with Spodoptera littoralis [1] (384 h, read-out: Control after 16 days/%), 5%.
Regarding `Cc1cc(C2=NOC(c3cc(Cl)cc(Cl)c3)(C(F)(F)F)C2)ccc1C(=O)NC1CS(=O)(=O)C1` (stereo not drawn) [Compound A10 from WO2009/080250, reference compound], the “Control after 10 days/%” value in the test on Spodoptera littoralis [1] (setting [3]) is on record as 100%. For the same compound, the pest or weed control at 12.5 ppm in the test on Spodoptera littoralis [1] (setting [4]) and in the test on Spodoptera littoralis [1] (setting [5]) was 100% throughout.
For `Cc1cc(C2=NSC(c3cc(Cl)cc(Cl)c3)(C(F)(F)F)C2)ccc1C(=O)NC(C)c1ccccc1` (stereo not drawn) [Compound A12], the pest or weed control at 200 ppm with Spodoptera littoralis [2], with Heliothis virescens, in the test with Plutella xylostella, in the test with Diabrotica balteata, in the test with Thrips tabaci and in the test with Tetranychus urticae was at least 80% throughout. Further, in the test on Spodoptera littoralis [1] (setting [4]), the pest or weed control at 12.5 ppm stood at 30%.
As to `Cc1cc(C2=NSC(c3cc(Cl)cc(Cl)c3)(C(F)(F)F)C2)ccc1C(=O)NCc1ccccn1` (stereo not drawn) [Compound A16], the pest or weed control at 200 ppm in the test on Spodoptera littoralis [2], with Heliothis virescens, in the test with Plutella xylostella, with Diabrotica balteata, in the test with Thrips tabaci and in the test on Tetranychus urticae was at least 80% each time. The “Control after 10 days/%” value with Spodoptera littoralis [1] (setting [3]) turned out to be 25%. In addition, the pest or weed control at 12.5 ppm was found to be 100% in the test with Spodoptera littoralis [1] (setting [4]) and 10% with Spodoptera littoralis [1] (setting [5]).
On to `Cc1cc(C2=NSC(c3cc(Cl)cc(Cl)c3)(C(F)(F)F)C2)ccc1C(=O)NC1CCC1` (stereo not drawn) [Compound A24], for which, in the test with Spodoptera littoralis [1] (12.5 ppm on cotton plants, leaves excised 2 days after treatment, 10 L3 larvae, mortality after 6 days incubation), the “Control after 2 days/%” value worked out at 100%. In addition, the “Control after 16 days/%” value in the test on Spodoptera littoralis [1] (12.5 ppm on cotton plants, leaves excised 16 days after treatment, 10 L3 larvae, mortality after 6 days incubation) worked out at 0%.
With `Cc1cc(C2=NSC(c3cc(Cl)cc(Cl)c3)(C(F)(F)F)C2)ccc1C(=O)NC1(C#N)CC1` (stereo not drawn) [Compound A45], the pest or weed control at 200 ppm in the test with Spodoptera littoralis [2], in the test on Heliothis virescens, in the test with Plutella xylostella, in the test on Diabrotica balteata, with Thrips tabaci and in the test with Tetranychus urticae was at least 80% each time. Further, the pest or weed control at 12.5 ppm in the test on Spodoptera littoralis [1] (setting [4]) amounted to 75%; in the test on Spodoptera littoralis [1] (setting [5]), 0%.
As for `Cc1cc(C2=NSC(c3cc(Cl)cc(Cl)c3)(C(F)(F)F)C2)ccc1C(=O)NCC(C)C` (stereo not drawn) [Compound A46], the pest or weed control at 200 ppm in the test with Spodoptera littoralis [2], in the test on Heliothis virescens, with Plutella xylostella, in the test with Diabrotica balteata, in the test on Thrips tabaci and in the test with Tetranychus urticae was at least 80% throughout. Moreover, the pest or weed control at 12.5 ppm in the test on Spodoptera littoralis [1] (setting [4]) came to 40%; with Spodoptera littoralis [1] (setting [5]) it was 0%.
As to `Cc1cc(C2=NSC(c3cc(Cl)cc(Cl)c3)(C(F)(F)F)C2)ccc1C(=O)NCC1CC1` (stereo not drawn) [Compound A53], the pest or weed control at 200 ppm in the test with Spodoptera littoralis [2], in the test on Heliothis virescens, in the test with Plutella xylostella, with Diabrotica balteata, with Thrips tabaci and with Tetranychus urticae was at least 80% each time. For the same compound, the pest or weed control at 12.5 ppm stood at 85% in the test with Spodoptera littoralis [1] (setting [4]) and 0% in the test with Spodoptera littoralis [1] (setting [5]).
Regarding `Cc1cc(C2=NSC(c3cc(Cl)cc(Cl)c3)(C(F)(F)F)C2)ccc1C(=O)Nc1ccc(F)cc1` (stereo not drawn) [Compound A59], the pest or weed control at 200 ppm in the test with Spodoptera littoralis [2], in the test with Heliothis virescens, in the test with Plutella xylostella, with Diabrotica balteata, with Thrips tabaci and with Tetranychus urticae was at least 80% each time. The pest or weed control at 12.5 ppm in the test on Spodoptera littoralis [1] (setting [4]) came out at 100%; in the test on Spodoptera littoralis [1] (setting [5]), 10%.
Turning to `CO/N=C/NC(=O)c1ccc(C2=NSC(c3cc(Cl)cc(Cl)c3)(C(F)(F)F)C2)cc1C` (stereo not drawn) [Compound C1, 4-[5-(3,5-dichlorophenyl)-5-(trifluoromethyl)-4H-isothiazol-3-yl]-N-[(E)-methoxyiminomethyl]-2-methyl-benzamide], the pest or weed control at 200 ppm in the test on Spodoptera littoralis [2], with Heliothis virescens, in the test with Plutella xylostella, in the test on Diabrotica balteata, in the test on Thrips tabaci and with Tetranychus urticae was at least 80% in each case. In addition, the values for the pest or weed control at 12.5 ppm with Spodoptera littoralis [1] (setting [4]) and in the test with Spodoptera littoralis [1] (setting [5]) were 100% and 5%, respectively.
In the case of `CO/N=C/NC(=O)c1ccc(C2=NSC(c3cc(Cl)cc(Cl)c3)(C(F)(F)F)C2)cc1Cl` (stereo not drawn) [Compound C3, 2-chloro-4-[5-(3,5-dichlorophenyl)-5-(trifluoromethyl)-4H-isothiazol-3-yl]-N-[(E)-methoxyiminomethyl]benzamide], the pest or weed control at 200 ppm in the test with Spodoptera littoralis [2], with Heliothis virescens, in the test on Plutella xylostella, in the test with Diabrotica balteata, in the test with Thrips tabaci and with Tetranychus urticae was at least 80% in each case. In addition, the figures for the pest or weed control at 12.5 ppm in the test with Spodoptera littoralis [1] (setting [4]) and in the test with Spodoptera littoralis [1] (setting [5]) were 100% and 0%, respectively.
